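Grown in 96-well plates, cells were treated for 48 hours with each compound at five concentrations. Insufficient inhibition: endpoint recorded as highest concentration tested. GI50 is the concentration that inhibits growth by half. TGI marks complete inhibition of growth.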
How the values were obtained:
Assay in all cases: growth of human tumour cells (NCI), 48 h
[1] = tested on: RXF 393 renal
[2] = tested on: SK-MEL-5 melanoma
[3] = tested on: 786-0 renal
[4] = tested on: NCI-H522 lung
[5] = tested on: MALME-3M melanoma
[6] = tested on: ACHN renal
[7] = tested on: SF-268 CNS
[8] = tested on: SN12C renal
[9] = tested on: BT-549 breast
[10] = tested on: NCI/ADR-RES ovarian

SMILES	TGI [1] [µM]	TGI [2] [µM]	TGI [3] [µM]	TGI [4] [µM]	TGI [5] [µM]	TGI [6] [µM]	TGI [7] [µM]	TGI [8] [µM]	GI50 [9] [µM]	TGI [9] [µM]	GI50 [1] [µM]	GI50 [2] [µM]	GI50 [3] [µM]	GI50 [6] [µM]	GI50 [7] [µM]	GI50 [10] [µM]	TGI [10] [µM]	GI50 [8] [µM]	GI50 [4] [µM]	GI50 [5] [µM]
Cc1cccc(C)c1NC(=O)C(=O)C(C(=O)c1ccccc1-c1ccccc1)C1OC(=O)c2ccccc21 (stereo not given)	28.4	33.7	37	24.9	33.4	> 100	78.4													
Cc1cc(C)nc(NS(=O)(=O)c2ccc(NC(=O)c3cccc4c(Nc5ccc(S(N)(=O)=O)cc5)c5ccccc5nc34)cc2)n1	> 81.8	> 95.9	> 100	38.7	55.5	> 100	> 67.4	> 82.6												
O=C(/C=C/c1ccccc1Cl)NC1C=Nc2ccc([N+](=O)[O-])cc2NC1 (stereo not given)	> 100	> 100	> 100	> 100	> 100	> 100	> 100	> 100												
Cc1nc([N+](=O)[O-])cn1CC(=N)N	> 100	> 100	> 100		> 100	> 100	> 100	> 100												
CC(C)N(C(=O)C12C3C4C1(I)C1C2C3(I)C41C(=O)N(C(C)C)C(C)C)C(C)C (stereo not given)	> 100	> 100	> 64.4	> 100	> 100	> 100	> 100	> 100												
COC(=O)[C@H]1C=C[C@@H](C)n2c(=O)c3cc4ccccc4cc3c(=O)n21	> 100	> 100	> 100	> 100	> 100	> 100	> 100	> 100												
O=P1(c2ccccc2)CCCCC1	> 100	> 100	> 100		> 100	> 100		> 100												
COc1cc(C=O)c(-c2cc(OC)c(OC)cc2C=O)cc1OC	86.3	> 100	> 100	> 100	> 100	> 100	> 100	> 100												
CCCN1CN(C(C(=O)N[C@@H]2C(=O)N3C2SC(C)(C)C3C(=O)O)c2ccc(O)cc2)CSC1=S (stereo not given in full)		> 100	> 100	83.6	> 100	> 100	> 100	> 100												
O=C(Nc1ccc(F)cc1)c1cc(S(=O)(=O)Nc2nc3ccccc3o2)c(SCc2ccccc2)cc1Cl	30.2	31.9	35.3			32.2	43.1	31.6	18.5	38.9	12.8	17.9	18.5	17.5	17.9	22.8	54.4	16.4		
CC1COC(C)(C)P(=O)(c2ccccc2)C1 (stereo not given)	> 100	> 100	> 100	> 100	> 100	> 100		> 100												
CCCO/S(=N\S(=O)(=O)c1ccccc1)c1ccccc1[N+](=O)[O-] (stereo not given)		> 100	> 100	> 100	> 100	> 100	> 100	> 100												
CC1=C(C(=O)Nc2ccc(Cl)c(Cl)c2)C(c2cccc(Oc3ccccc3)c2)NC(=O)N1 (stereo not given)	26.5	17	20.8	26		17.3	17.7	12.5	4.23	14.3	9.61	8.07	10.2	6.6	6.65			5.28	4.47	
Cc1ccc(S(=O)(=O)c2ccc(N)cc2)cc1	> 100	> 100	> 100		> 100	> 100														
COc1ccc(-c2ccc(-c3ccc(C(=N)N)s3)s2)cc1	3.05	2.87	0.378	1.2	1.39	0.359	0.451	0.465			1.26	1.21	0.187	0.19	0.211	0.416	1.6	0.205	0.264	0.564
COc1cc2c(OC)cc1CSCc1sc(C)c(c1Br)CSC2	> 100	> 100	> 100		> 100	> 100	> 100	> 100												
Cc1c(/C=N/NC(=O)c2ccc(Cl)cc2)c(=O)n(-c2ccccc2)n1C	> 100		> 100	> 100	> 100	> 100	> 100	> 100												

Reference: PubChem BioAssay (NCI)
